Here are results for two molecules from patent US11559545B2, “Inhibition of UCHL1 in high-grade serous ovarian cancer” (The Trustees of Indiana University, priority 2019, dated 2023).

Test [1] concerns UCHL1. Nature of the test: Relative UCHL1 expression (qPCR) after DNA methylase inhibitor treatment in ovarian cancer cells. Type of test: cell-based. Particulars: 200 μM, day 2, HGSOC cell lines with mutant p53, FIG. 7I. As to the method:
FIG. 7A depicts relative UCHL1 expression (qPCR) after treatment with DNA methylase inhibitor, 5AzaDC (200 μM, day3) in ovarian cancer cells. The following cell cultures were included in the analysis: HeyA8 (WT p53), SKOV3 (p53 null), OVCAR5 (p53 null), Kuramochi (mutant p53), and OVCAR4 (mutant p53).
FIG. 7H depicts relative UCHL1 expression (qPCR) after treatment with DNA methylase inhibitor, 5AzaDC (200 μM, day 2) in ovarian cancer cells with wild-type p53 (HeyA8 and A2780), ovarian cancer cells with p53-null mutations (OVCAR5 and SKOV3) and normal fallopian tube cells with wild-type p53 (FTE282).
FIG. 7I illustrates that no change in UCHL1 levels were detected with treatment with DNA methylase inhibitor 5AzaDC (200 μM, day 2) in HGSOC cell lines with mutant p53.

Test [2] relates to PSMA7. Nature of the test: PSMA7 RNA and protein levels in treated TKO mice. Type of test: in vivo, mouse. As to conditions: treated TKO mice vs untreated TKO control, FIG. 12E.
In test [3] the test system is Proteasome. Nature of the test: Proteasome activity in treated TKO mice. Particulars: treated TKO mice vs TKO CTL mice, FIG. 12E. Type of test: in vivo, mouse.
Test [4] concerns HGSOC primary and metastatic tumors. Nature of the test: Transgenic TKO mouse model of HGSOC: growth and progression of primary and metastatic tumors after UCHL1 inhibition. The class given is in vivo. From the text:
Triple mutant (TKO) mice are Pten and Dicer knockout and overexpress mutant p53 R172H (corresponding to human R175H mutant) (Pten−/− Dicer−/− and p53-R172H). These mice spontaneously developed primary tumors in the fallopian tube at age 4 months, which metastasize to other organs by 5-6 months. This model recapitulates metastatic tumor growth as in ovarian cancer patients. […] The tumors are circled using a dotted line and/or indicated with arrows.
FIGS. 11B and 11C illustrate the reduction in primary HGSOC tumor size with LDN treatment in mice aged 4-6 months.

Test [5] has as its system UCHL1. As to conditions: cited from earlier work.

Regarding `Nc1ncn([C@H]2C[C@H](O)[C@@H](CO)O2)c(=O)n1` [5AzaDC], in test [1], the UCHL1 levels result is “no change”.
As for `CC(=O)O/N=C1\C(=O)N(Cc2cc(Cl)ccc2Cl)c2ccc(Cl)cc21` [LDN-57444], in test [2], the “PSMA7 RNA levels” value is given as “reduced” and the PSMA7 protein levels entry is given as “reduced”. Moreover, in test [3], the Proteasome activity result was “significantly reduced”. Besides, the primary tumor entry in test [4] (TKO mice (Pten-/- Dicer-/- p53-R172H) vs TKO control, FIG. 11A) was “visible reduction”. In addition, the “metastatic tumors in the omentum, diaphragm, mesentery, and peritoneal wall” value in test [4] (TKO mice vs TKO control, FIG. 11A) is “absence”. Besides, the “primary HGSOC tumor size” value in test [4] (mice aged 4-6 months, FIGS. 11B and 11C) is on record as “reduction”. The “mode of UCHL1 inhibition” value in test [5] was “competitive, reversible, active site-directed inhibitor”.
